The source of these data is patent US7355063B2, “Shogaol compound and tyrosinase activity inhibitor comprising the compound” (Toagosei Co., Ltd., priority 2003, dated 2008).

A short description of series [1]: Dissolution of test compound for the hyaluronic acid-degrading enzyme test. As to conditions: concentration of 0.4 mg/ml, acetate buffer. It counts as physicochemical. The protocol:
First, the following solutions shown in A to H were each prepared. • A: 0.1M acetate buffer solution was prepared by dissolving 0.60 g of acetic acid in 100 ml of distilled water. • B: A hyaluronidase solution was prepared by dissolving 7.2 mg of a hyaluronic acid-degrading enzyme (derived from bovine testicles manufactured by Sigma Corporation, Type IV-S) into 3.0 ml of the acetate buffer (prepared in the above A). • C: An activator solution was prepared by dissolving 1.0 mg of compound 48/80 (a hyaluronidase activator manufactured by Sigma Corporation) into 10.0 ml of the acetate buffer (prepared in the above A). • D: A hyaluronic acid solution was prepared by dissolving 12.0 mg of potassium hyaluronate (manufactured by Wako Pure Chemical Industries, Ltd.) into 15.0 ml of the acetate buffer (prepared in the above A). • E: A 0.4N sodium hydroxide aqueous solution was prepared by dissolving 1.60 g of sodium hydroxide into 100 ml of distilled water. • F: After 4.95 g of boric acid was dissolved into 50 ml of distilled water, a 1N sodium hydroxide aqueous solution was added until pH reached 9.1. Subsequently, the whole amount was made 100 ml by adding distilled water. • G: 1.0 g of p-dimethylaminobenzaldehyde, 1.25 ml of 10N hydrochloric acid, and 8.75 ml of acetic acid were mixed. […]

The subject of series [2] is mushroom tyrosinase. Briefly: Tyrosinase activity inhibition test using L-dopa as substrate (Test Examples 1 and 2, absorbance at 475 nm). Format: biochemical. As to conditions: Table 1. As to the method:
Using the compound 7 obtained in Example 2, the compound 13 obtained in Example 5, a mixture of the compound 18 and the compound 19 (existing molar ratio 45:55) obtained in Example 7, and arbutin (manufactured by Tokyo Kasei Kogyo Co., Ltd.) as a comparative control, a tyrosinase activity inhibition test was carried out using L-dopa as a substrate.
The specific test procedures are as follows. • (1) 1.80 ml of a phosphate buffer prepared by dissolving 1.000 g of sodium dihydrogen phosphate and 1.186 g of disodium hydrogen phosphate in 500 ml of distilled water, 1.00 ml of a substrate solution prepared by dissolving 32.7 mg of L-DOPA in 200 ml of distilled water, and 0.10 ml of a test solution prepared by dissolving the test compound in dimethyl sulfoxide were mixed together. • (2) 0.10 ml of an enzyme solution prepared by dissolving 3.0 mg (2400 units; manufactured by Sigma Corporation) of mushroom tyrosinase in 7.0 ml of distilled water was added to the solution prepared in (1), and the whole was stirred for 15 seconds. The resulting solution was maintained at 25° C., and the absorbance at 475 nm was measured one minute and 45 seconds later and 2 minutes and 45 seconds later. • (3) The test operations in the above (1) and (2) were conducted three times for the individual test compounds and blank test (only dimethyl sulfoxide), and the resulting numeric value was inserted in the following calculation formula and a mean value thereof was regarded as a tyrosinase activity inhibition ratio (%). Tyrosinase activity inhibition ratio (%)=[(T^1−T^2)/T^1]×100 • T^1=difference in absorbance of solution with addition of no test compound between 2 minutes and 45 seconds later and one minute and 45 seconds later • T^2=difference in absorbance of solution with addition of test compound was added between 2 minutes and 45 seconds later and one minute and 45 seconds later
Using the compound 40 obtained in Example 24 and arbutin (manufactured by Tokyo Kasei Kogyo Co., Ltd.) as a comparative control, a tyrosinase activity inhibition test was carried out using L-dopa as a substrate. The test procedure was in accordance with Test Example 1.

For series [3], the target named is T1, hyaluronic acid-degrading enzyme (derived from bovine testicles, Type IV-S) (Bos taurus, UniProt Q2YDK3).
T1 construct: derived from bovine testicles manufactured by Sigma Corporation, Type IV-S; purchased Sigma Corporation Type IV-S; host or cells: bovine testicles
T1 sequence (Q2YDK3 36-553): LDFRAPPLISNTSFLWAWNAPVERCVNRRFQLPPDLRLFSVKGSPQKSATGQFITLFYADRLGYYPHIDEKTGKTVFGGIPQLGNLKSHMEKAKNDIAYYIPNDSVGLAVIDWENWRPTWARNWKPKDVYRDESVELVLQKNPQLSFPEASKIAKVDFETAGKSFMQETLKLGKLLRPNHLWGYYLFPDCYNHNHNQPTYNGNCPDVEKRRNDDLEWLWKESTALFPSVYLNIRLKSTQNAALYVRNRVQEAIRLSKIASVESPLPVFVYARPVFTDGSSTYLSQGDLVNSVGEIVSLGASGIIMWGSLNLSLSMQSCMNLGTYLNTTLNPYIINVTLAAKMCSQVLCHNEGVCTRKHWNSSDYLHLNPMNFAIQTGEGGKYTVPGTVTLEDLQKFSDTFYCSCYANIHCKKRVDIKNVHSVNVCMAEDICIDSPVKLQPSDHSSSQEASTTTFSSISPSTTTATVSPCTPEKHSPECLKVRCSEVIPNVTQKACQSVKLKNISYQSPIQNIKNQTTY
Description: Hyaluronic acid-degrading enzyme activity inhibition test. Format: biochemical. The protocol: Using the compound 7 obtained in Example 2, the compound 34, and magnesium ascorbate phosphate as a comparative control, a hyaluronic acid-degrading enzyme activity inhibition test was carried out.
First, the following solutions shown in A to H were each prepared. • A: 0.1M acetate buffer solution was prepared by dissolving 0.60 g of acetic acid in 100 ml of distilled water. • B: A hyaluronidase solution was prepared by dissolving 7.2 mg of a hyaluronic acid-degrading enzyme (derived from bovine testicles manufactured by Sigma Corporation, Type IV-S) into 3.0 ml of the acetate buffer (prepared in the above A). • C: An activator solution was prepared by dissolving 1.0 mg of compound 48/80 (a hyaluronidase activator manufactured by Sigma Corporation) into 10.0 ml of the acetate buffer (prepared in the above A). • D: A hyaluronic acid solution was prepared by dissolving 12.0 mg of potassium hyaluronate (manufactured by Wako Pure Chemical Industries, Ltd.) into 15.0 ml of the acetate buffer (prepared in the above A). • E: A 0.4N sodium hydroxide aqueous solution was prepared by dissolving 1.60 g of sodium hydroxide into 100 ml of distilled water. • F: After 4.95 g of boric acid was dissolved into 50 ml of distilled water, a 1N sodium hydroxide aqueous solution was added until pH reached 9.1. Subsequently, the whole amount was made 100 ml by adding distilled water. • G: 1.0 g of p-dimethylaminobenzaldehyde, 1.25 ml of 10N hydrochloric acid, and 8.75 ml of acetic acid were mixed. The solution was used after the whole amount was made 100 ml by adding acetic acid immediately before use. • H: Each test compound was dissolved in the acetate buffer (prepared in the above A) so the final test concentration became 0.5 mg/ml and 1.0 mg/ml.
Next, the experimental operation was carried out with the procedures shown in the following (1) to (8).
(1) 0.2 ml of the test compound solution (prepared in the above H) and 0.1 ml of the hyaluronic acid-degrading enzyme solution (prepared in the B) were mixed and the whole was incubated at 37° C. for 20 minutes.
(2) To the above reaction solution was added 0.2 ml of the activator solution (prepared in the above C) and the whole was incubated at 37° C. for 20 minutes.
(3) To the above reaction solution was added 0.5 ml of the hyaluronic acid solution (prepared in the above D), and the whole was incubated at 37° C. for 40 minutes.
(4) To the above reaction solution was added 0.2 ml of the 0.4N sodium hydroxide aqueous solution (prepared in the above E), and the whole was cooled in an ice bath.
(5) To the above reaction solution was added 0.2 ml of the boric acid solution (prepared in the above F), and the whole was heated at 100° C. for 3 minutes.
(6) The above reaction solution was cooled in an ice bath.
(7) To the above reaction solution was added 3.0 ml of the p-dimethylaminobenzaldehyde solution (prepared in the above G), and the whole was incubated at 37° C. for 20 minutes.
(8) Absorbance of the reaction solution at 585 nm was measured using a spectrophotometer.
The above experimental operations were repeated three times, and the resulting numeric value was inserted in the following calculation formula and a mean value thereof was regarded as a hyaluronic acid-degrading enzyme activity inhibition ratio (%). Hyaluronic acid-degrading enzyme activity inhibition ratio (%)=(A−B)/A×100
A=absorbance obtained at the time when operation was carried out with addition of no test compound
B=absorbance obtained at the time when operation was carried out with addition of test compound
The compounds of the invention and magnesium ascorbate phosphate were each used in an enzymatic reaction solution in amounts of 0.1 mg/ml, 0.2 mg/ml, and 0.4 mg/ml, and the results were shown in Table 7 (since the compound 7 was not dissolved in a concentration of 0.4 mg/ml, the test was not carried out).

Series [4] is described as follows: Test of scavenging DPPH radical (Test Example 8, 517 nm). As to conditions: final concentration of 10 μg/mL; 20 minutes, room temperature. As to the method:
Using the compound 7 obtained in Example 2 as well as dl-α-tocopherol (manufactured by Tokyo Kasei Kogyo Co., Ltd.) and butylhydroxytoluene (BHT) as comparative controls, a test of scavenging DDPH (1,1-diphenyl-2-picrylhydrazyl) radical, a stable radical, was carried out.
1 ml of 200 μM DPPH ethanol solution was added to 800 μl of 100 mM Tris-HCl buffer (pH 7.4) and 200 μl of an ethanol solution of the compound 7 (a final concentration of 10 μg/mL), followed by sufficient stirring. After the resulting mixture was allowed to stand in a dark place at room temperature for 20 minutes, the absorbance at 517 nm was measured (absorbance of the test solution)
The compound 13 of the invention as well as dl-α-tocopherol and butylhydroxytoluene as a known radical scavenger were similarly tested.
As a control, 800 μl of 100 mM Tris-HCl buffer (pH 7.4), 200 μl of ethanol, and 1 ml of 200 μM DPPH ethanol solution were used in the same manner as described above and the absorbance was measured (absorbance of the control solution).
With the individual compounds, the same measurement was repeated three times, and the mean value was inserted in the following formula to calculate a DPPH radical-scavenging ratio (%). DPPH radical-scavenging ratio (%)=[1−(absorbance of sample solution/absorbance of control solution)]×100

As for `COc1cc(CCC(=O)/C=C/CCCCCCC(=O)O)ccc1O` [Compound 7], in series [1], the “Solubility in the test solution” value is reported as “not dissolved”. Also, the “Tyrosinase activity inhibition ratio (%)” value in series [2] (0.5 mg/mL in enzymatic reaction solution) was 59.8%; in series [2] (1 mg/mL in enzymatic reaction solution), 77.1%. In addition, the “Hyaluronic acid-degrading enzyme activity inhibition ratio (%)” value in series [3] (0.1 mg/mL) was determined as 10.6%; in series [3] (0.2 mg/mL), 41.3%. In series [4], the “DPPH radical-scavenging ratio (%)” value is 33.7%.
